Active and inactive are the calls of the source. The calls are words filed in the database; no cut-off is given here.
Legend:
Format in all cases: functional, organism-based
[1] = tested on: Candida albicans; test: Antifungal activity against log phase culture of Candida albicans at 10 to 300 uM treated directly to growing cultures measured after 4 hrs by methylene blue assay
[2] = tested on: Candida albicans; test: Antifungal activity against log phase culture of Candida albicans in GPP medium at 300 uM after 4 hrs by methylene blue assay
[3] = tested on: Candida albicans; test: Antifungal activity against exponential phase culture of Candida albicans in GPP medium at 40 uM after 24 hrs by methylene blue assay
[4] = tested on: Candida albicans; test: Antifungal activity against log phase culture of Candida albicans in GPP medium at 40 uM after 24 hrs by methylene blue assay
[5] = tested on: Candida albicans; test: Antifungal activity against exponential phase culture of Candida albicans in YPD medium at 10 to 300 uM at 30 degC after 24 hrs by methylene blue assay
[6] = tested on: Candida albicans; test: Antifungal activity against stationary phase culture of Candida albicans in GPP medium at 10 to 300 uM at 30 degC after 24 hrs by methylene blue assay
[7] = tested on: Candida albicans; test: Antifungal activity against exponential phase culture of Candida albicans in GPP medium at 10 to 300 uM at 30 degC after 24 hrs by methylene blue assay
[8] = tested on: Candida albicans; test: Antifungal activity against stationary phase culture of Candida albicans in YPD medium at 10 to 300 uM at 37 degC after 24 hrs by methylene blue assay
[9] = tested on: Candida albicans; test: Antifungal activity against stationary phase culture of Candida albicans in YPD medium at 10 to 300 uM at 25 degC after 24 hrs by methylene blue assay
[10] = tested on: Candida albicans; test: Antifungal activity against stationary phase culture of Candida albicans in GPP medium up to 300 uM after 24 hrs by methylene blue assay
[11] = tested on: Candida albicans; test: Antifungal activity against exponential phase culture of Candida albicans at 10 to 300 uM treated directly to growing cultures measured after 4 hrs by methylene blue assay
[12] = tested on: Candida albicans; test: Antifungal activity against stationary phase culture of Candida albicans in YPD medium at 10 to 300 uM at 30 degC after 24 hrs by methylene blue assay
[13] = tested on: Candida albicans; test: Antifungal activity against exponential phase culture of Candida albicans in YPD medium at 10 to 300 uM at 25 degC after 24 hrs by methylene blue assay
[14] = tested on: Candida albicans; test: Antifungal activity against Candida albicans in YPD medium up to 300 uM after 24 hrs by methylene blue assay
[15] = tested on: Candida albicans; test: Antifungal activity against Candida albicans in YPD medium at => 300 uM after 24 hrs by methylene blue assay
[16] = tested on: Candida albicans; test: Antifungal activity against exponential phase culture of Candida albicans in GPP medium at 10 to 300 uM at 37 degC after 24 hrs by methylene blue assay
[17] = tested on: Candida albicans; test: Antifungal activity against stationary phase culture of Candida albicans in GPP medium at 10 to 300 uM at 37 degC after 24 hrs by methylene blue assay
[18] = tested on: Candida albicans; test: Antifungal activity against stationary phase culture of Candida albicans in GPP medium at 10 to 300 uM at 25 degC after 24 hrs by methylene blue assay
[19] = tested on: Candida albicans; test: Antifungal activity against exponential phase culture of Candida albicans in GPP medium at 10 to 300 uM at 25 degC after 24 hrs by methylene blue assay
[20] = tested on: Candida albicans; test: Antifungal activity against log phase culture of Candida albicans in GPP medium at 100 uM after 1 hr by methylene blue assay
[21] = tested on: Candida albicans; test: Antifungal activity against exponential phase culture of Candida albicans in YPD medium at 10 to 300 uM at 37 degC after 24 hrs by methylene blue assay

Question: For CC(C)=CCC/C(C)=C/CC/C(C)=C/CO, which Activity [1] is on record?
Answer: Active

Question: And the Activity [2]?
Answer: Active

Question: And the Activity [3]?
Answer: Active

Question: What about the Activity [4] of the same compound?
Answer: Active

Question: And the Activity [5]?
Answer: inactive

Question: What about the Activity [6] of the same compound?
Answer: inactive

Question: What about the Activity [7] of the same compound?
Answer: inactive

Question: And the Activity [8]?
Answer: inactive

Question: And the Activity [9]?
Answer: inactive

Question: And the Activity [10]?
Answer: inactive

Question: And the Activity [11]?
Answer: Active

Question: What about the Activity [12] of the same compound?
Answer: inactive

Question: What about the Activity [13] of the same compound?
Answer: inactive

Question: What about the Activity [14] of the same compound?
Answer: inactive

Question: What about the Activity [15] of the same compound?
Answer: Active

Question: What about the Activity [16] of the same compound?
Answer: inactive

Question: What about the Activity [17] of the same compound?
Answer: inactive

Question: And the Activity [18]?
Answer: inactive

Question: And the Activity [19]?
Answer: inactive

Question: What about the Activity [20] of the same compound?
Answer: Active

Question: What about the Activity [21] of the same compound?
Answer: inactive

From ChEMBL document CHEMBL1212789, “Activity and toxicity of farnesol towards Candida albicans are dependent on growth conditions” (Antimicrob Agents Chemother, 2010)
